According to patent US20150148377A1, “Quinoline Derivatives” (NOVARTIS AG, priority 2011, published 2015):

Experiments:
PI3K alpha = biological target: T1, PI3K alpha (Homo sapiens, UniProt P42336); assay: Enzymatic PI3K alpha isoform inhibition (lipid kinase activity, Kinase-Glo); assay type: biochemical; conditions: enzymatic assay
T1 construct: His tag (C); made in house; host or cells: baculovirus; Tn5 (Trichoplusia ni) or TiniPro insect cells
How it was run: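 Lipid kinase reaction with 10 nM PI3Kα, 1 μM ATP and 10 μg/mL phosphatidylinositol in pH 7.5 Tris with MgCl2, NaCl, CHAPS and DTT, run 60 min at room temperature. Remaining ATP read by Kinase-Glo luminescence. IC50 from 8-point 4-parameter logistic fits.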

[1] = biological target: T2, human phosphoinositide-3 kinase (PI3K) delta (Homo sapiens, UniProt O00329); assay: PI3K-mediated Akt 1/2 (S473) phosphorylation in Rat-1 cells (Cell PI3Kδ); assay type: cell-based; conditions: Rat-1 cells overexpressing myristoylated human PI3K delta; p-Akt (Ser473)
T2 construct: myristoylation signal (myristoylated form); expressed in transfected cells
T2 sequence (O00329 whole entry): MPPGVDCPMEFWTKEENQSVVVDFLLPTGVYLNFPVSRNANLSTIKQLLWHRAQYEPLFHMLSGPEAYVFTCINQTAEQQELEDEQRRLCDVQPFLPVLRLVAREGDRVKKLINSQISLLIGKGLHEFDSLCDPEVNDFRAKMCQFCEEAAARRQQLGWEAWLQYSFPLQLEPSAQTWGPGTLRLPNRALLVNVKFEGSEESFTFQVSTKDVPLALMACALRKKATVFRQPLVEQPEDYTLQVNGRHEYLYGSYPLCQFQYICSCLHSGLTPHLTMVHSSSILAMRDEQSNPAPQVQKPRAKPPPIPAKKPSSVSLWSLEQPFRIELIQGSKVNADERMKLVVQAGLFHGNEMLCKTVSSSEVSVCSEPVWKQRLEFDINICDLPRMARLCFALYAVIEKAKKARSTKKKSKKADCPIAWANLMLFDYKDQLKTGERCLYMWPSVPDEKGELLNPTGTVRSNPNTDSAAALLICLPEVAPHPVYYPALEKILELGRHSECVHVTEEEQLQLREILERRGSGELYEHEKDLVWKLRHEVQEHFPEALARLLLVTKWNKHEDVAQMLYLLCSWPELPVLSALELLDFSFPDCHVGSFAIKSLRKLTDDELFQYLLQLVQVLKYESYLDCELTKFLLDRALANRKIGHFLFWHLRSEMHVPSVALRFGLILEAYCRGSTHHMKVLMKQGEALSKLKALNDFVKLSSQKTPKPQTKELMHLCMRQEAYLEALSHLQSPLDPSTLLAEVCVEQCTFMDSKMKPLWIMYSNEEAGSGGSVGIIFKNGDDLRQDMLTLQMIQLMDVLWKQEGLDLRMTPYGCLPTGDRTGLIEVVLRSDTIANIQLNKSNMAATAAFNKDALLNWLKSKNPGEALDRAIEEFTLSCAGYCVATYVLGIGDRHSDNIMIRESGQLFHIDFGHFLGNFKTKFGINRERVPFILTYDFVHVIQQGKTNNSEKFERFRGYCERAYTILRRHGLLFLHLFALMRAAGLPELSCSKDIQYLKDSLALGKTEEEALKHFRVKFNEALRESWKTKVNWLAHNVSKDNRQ
T2 sequence (Q63787 whole entry partner): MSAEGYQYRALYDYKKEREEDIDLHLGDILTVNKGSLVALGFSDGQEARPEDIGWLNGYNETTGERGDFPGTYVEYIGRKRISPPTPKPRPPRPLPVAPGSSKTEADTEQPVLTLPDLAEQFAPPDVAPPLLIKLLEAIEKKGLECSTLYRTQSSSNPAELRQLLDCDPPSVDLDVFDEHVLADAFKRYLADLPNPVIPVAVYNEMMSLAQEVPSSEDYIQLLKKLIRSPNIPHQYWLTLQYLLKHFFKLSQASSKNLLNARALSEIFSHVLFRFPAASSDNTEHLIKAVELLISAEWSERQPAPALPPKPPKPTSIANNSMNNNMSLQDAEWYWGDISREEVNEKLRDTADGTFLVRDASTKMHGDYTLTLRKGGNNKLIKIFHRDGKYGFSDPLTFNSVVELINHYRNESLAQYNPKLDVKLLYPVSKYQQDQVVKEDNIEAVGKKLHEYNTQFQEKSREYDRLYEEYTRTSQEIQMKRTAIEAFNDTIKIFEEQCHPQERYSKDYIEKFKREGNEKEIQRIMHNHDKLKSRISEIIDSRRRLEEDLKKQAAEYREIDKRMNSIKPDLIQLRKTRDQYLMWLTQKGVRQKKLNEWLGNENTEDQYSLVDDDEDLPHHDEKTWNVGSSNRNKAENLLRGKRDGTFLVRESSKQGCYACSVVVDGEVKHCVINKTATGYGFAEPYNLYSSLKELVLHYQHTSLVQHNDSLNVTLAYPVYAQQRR
Method: 2.1 Phosphoinositide-3 kinase (PI3K)-mediated Akt 1/2 (S473) phosphorylation in Rat-1 cells
Rat-1 cells stably overexpressing a myristoylated form of the catalytic subunit of human phosphoinositide-3 kinase (PI3K) alpha, beta or delta were plated in 384-well plates at a density of 7500 (PI3K alpha), 6200 (PI3K beta), or 4000 (PI3K delta) cells in 30 ul complete growth medium (Dulbecco's modified Eagle's medium (DMEM high glucose) supplemented with 10% (v/v) fetal bovine serum, 1% (v/v) MEM non essential amino acids, 10 mM HEPES, 2 mM L-glutamine, 10 μg/mL puromycin and 1% (v/v) Penicillin/Streptomycin) and were incubated at […]/5% CO2/95% humidity for 24 h. Compounds were diluted in 384-well compound plates to obtain 8-point serial dilutions for 40 test compounds in 90% DMSO, as well as 4 reference compounds plus 16 high controls and 16 low (inhibited) controls. Predilution plates were prepared by dispensing pipetting 250 nl of compound solutions into 384-well polypropylen plates using a Hummingwell nanoliter dispensor. Compounds were prediluted by the addition of 49.75 ul complete growth medium. 10 ul of prediluted compound solution were transferred to the cell plate using a 384-well pipettor, resulting in a final DMSO concentration of 0.11%. Cells were incubated for 1 h at […]/5% CO2/95% humidity. The supernatant was removed, the cells were lysed in 20 ul of lysis buffer for AlphaScreen® SureFire® detection.
For detection of p-AKT(Ser473), the SureFire® p-Akt 1/2 (Ser473) Assay Kit (PerkinElmer, U.S.A) was used. 5 ul of cell lysate was transferred to 384-well low volume Proxiplates for detection using a 384-well pipettor. Addition of AlphaScreen® SureFire® reagents was done according to the manufacturer's protocol. First, 5 ul of reaction buffer plus activation buffer mix containing AlphaScreen® acceptor beads was added, the plate was sealed, and incubated on a plate shaker for 2 hours at room temperature. Second, 2 ul of dilution buffer containing AlphaScreen® donor beads was added, and the plate was incubated on plate shaker as above for a further 2 hours. The plate was read on an AlphaScreen® compatible plate reader, using standard AlphaScreen® settings.

T1 sequence (P42336 with tags, fused parts or gaps limits assumed): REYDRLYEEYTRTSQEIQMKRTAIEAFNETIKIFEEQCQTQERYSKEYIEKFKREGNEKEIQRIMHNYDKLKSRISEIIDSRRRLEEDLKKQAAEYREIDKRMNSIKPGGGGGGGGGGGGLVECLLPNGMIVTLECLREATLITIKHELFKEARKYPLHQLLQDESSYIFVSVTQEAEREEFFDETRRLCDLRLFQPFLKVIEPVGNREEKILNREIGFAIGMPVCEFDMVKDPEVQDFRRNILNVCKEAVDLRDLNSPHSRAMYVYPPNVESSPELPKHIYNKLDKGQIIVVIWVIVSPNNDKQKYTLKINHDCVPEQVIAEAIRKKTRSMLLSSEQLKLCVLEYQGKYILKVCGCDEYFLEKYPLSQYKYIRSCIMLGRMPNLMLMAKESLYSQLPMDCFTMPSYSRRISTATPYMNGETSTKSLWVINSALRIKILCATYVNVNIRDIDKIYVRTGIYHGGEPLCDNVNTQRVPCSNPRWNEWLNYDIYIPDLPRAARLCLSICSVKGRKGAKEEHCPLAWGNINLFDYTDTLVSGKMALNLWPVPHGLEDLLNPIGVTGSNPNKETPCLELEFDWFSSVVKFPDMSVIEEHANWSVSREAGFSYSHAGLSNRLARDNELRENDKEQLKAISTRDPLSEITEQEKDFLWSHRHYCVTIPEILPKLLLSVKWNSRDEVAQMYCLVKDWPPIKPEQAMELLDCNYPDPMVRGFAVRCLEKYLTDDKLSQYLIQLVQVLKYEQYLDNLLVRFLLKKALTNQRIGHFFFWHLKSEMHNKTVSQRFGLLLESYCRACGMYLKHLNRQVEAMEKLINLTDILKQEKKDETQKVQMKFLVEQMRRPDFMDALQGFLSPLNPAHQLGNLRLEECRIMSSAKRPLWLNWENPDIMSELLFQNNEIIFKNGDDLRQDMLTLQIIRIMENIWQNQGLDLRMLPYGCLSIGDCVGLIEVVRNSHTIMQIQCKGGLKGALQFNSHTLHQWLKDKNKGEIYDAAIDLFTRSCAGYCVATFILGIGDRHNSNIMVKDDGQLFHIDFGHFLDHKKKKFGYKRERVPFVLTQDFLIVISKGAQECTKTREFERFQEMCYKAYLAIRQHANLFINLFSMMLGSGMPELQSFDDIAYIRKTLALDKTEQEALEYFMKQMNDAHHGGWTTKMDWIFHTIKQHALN

Row | IC50 (PI3K alpha) [nM] | IC50 [1] [nM] | SMILES
1 | 67 | 14 | COc1ncc(-c2ccnc3ccc(O[C@H]4CCN(C(=O)[C@@H]5CCN(C(C)=O)C5)C4)cc23)cc1C(F)F [Example A24, 1-((R)-3-{(S)-3-[4-(5-Difluoromethyl-6-methoxy-pyridin-3-yl)-quinolin-6-yloxy]-pyrrolidine-1-carbonyl}-pyrrolidin-1-yl)-ethanone]
2 | 3110 | 246 | COc1ncc(-c2ccnc3cc(F)c(O[C@H]4CCN(C(=O)C5CCS(=O)(=O)CC5)C4)cc23)cc1C [Example C1, (1,1-Dioxo-hexahydro-1lambda*6*-thiopyran-4-yl)-{(S)-3-[7-fluoro-4-(6-methoxy-5-methyl-pyridin-3-yl)-quinolin-6-yloxy]-pyrrolidin-1-yl}-methanone]
3 | 5680 | 116 | Cc1cc(-c2ccnc3cc(F)c(O[C@H]4CCN(C(=O)C5CCOCC5)C4)cc23)cnc1S(C)(=O)=O [Example C2, {(S)-3-[7-Fluoro-4-(6-methanesulfonyl-5-methyl-pyridin-3-yl)-quinolin-6-yloxy]-pyrrolidin-1-yl}-(tetrahydro-pyran-4-yl)-methanone]
4 | 77 | 32 | COc1ncc(-c2ccnc3ccc(O[C@H]4CCN(C(=O)C5CCS(=O)(=O)CC5)C4)cc23)cc1Cl [Example A1, {(S)-3-[4-(5-Chloro-6-methoxy-pyridin-3-yl)-quinolin-6-yloxy]-pyrrolidin-1-yl}-(1,1-dioxo-hexahydro-1lambda*6*-thiopyran-4-yl)-methanone]
5 | 821 | 260 | CCC(=O)N1CC[C@H](Oc2ccc3nccc(-c4cnc(S(C)(=O)=O)c(C)c4)c3c2)C1 [Example A25, 1-{(S)-3-[4-(6-Methanesulfonyl-5-methyl-pyridin-3-yl)-quinolin-6-yloxy]-pyrrolidin-1-yl}-propan-1-one]
6 | 53 | 78 | COc1ncc(-c2ccnc3ccc(O[C@H]4CCN(C(=O)C5CCS(=O)(=O)CC5)C4)cc23)cc1C(F)F [Example A6, {(S)-3-[4-(5-Difluoromethyl-6-methoxy-pyridin-3-yl)-quinolin-6-yloxy]-pyrrolidin-1-yl}-(1,1-dioxo-hexahydro-1lambda*6*-thiopyran-4-yl)-methanone]
7 | 498 | 105 | COc1ncc(-c2ccnc3ccc(O[C@H]4CCN(C(=O)C5CCS(=O)(=O)CC5)C4)c(C)c23)cc1C [Example B3, (1,1-Dioxo-hexahydro-1lambda*6*-thiopyran-4-yl)-{(S)-3-[4-(6-methoxy-5-methyl-pyridin-3-yl)-5-methyl-quinolin-6-yloxy]-pyrrolidin-1-yl}-methanone]
8 | 1360 | 16 | COc1ncc(-c2ccnc3ccc(O[C@H]4CCN(C(=O)[C@@H]5CCN(C(C)=O)C5)C4)cc23)cc1C [Example A10, 1-((R)-3-{(S)-3-[4-(6-Methoxy-5-methyl-pyridin-3-yl)-quinolin-6-yloxy]-pyrrolidine-1-carbonyl}-pyrrolidin-1-yl)-ethanone]
9 | 186 | 52 | COc1ncc(-c2ccnc3ccc(O[C@H]4CCN(C(=O)C5CCS(=O)(=O)CC5)C4)cc23)cc1C [Example A15, (1,1-Dioxo-hexahydro-1lambda*6*-thiopyran-4-yl)-{(S)-3-[4-(6-methoxy-5-methyl-pyridin-3-yl)-quinolin-6-yloxy]-pyrrolidin-1-yl}-methanone]
10 | 63 | 14 | COc1ncc(-c2ccnc3ccc(O[C@H]4CCN(C(=O)[C@@H]5CCN(C(C)=O)C5)C4)c(C)c23)cc1C(F)F [Example B1, 1-((R)-3-{(S)-3-[4-(5-Difluoromethyl-6-methoxy-pyridin-3-yl)-5-methylquinolin-6-yloxy]-pyrrolidine-1-carbonyl}-pyrrolidin-1-yl)-ethanone]
